Measured values taken from patent US11858951B2, “Boronic acid derivatives” (Merck Patent GmbH, priority 2017, dated 2024).
Where two headings read alike, the source gives them in different places.

Columns and labels:
[1] = target: Beta5 (purified human constitutive proteasome) (Homo sapiens, UniProt P28074); assay: Determination of Beta5 activity (fluorescence intensity assay, Suc-LLVY-AMC); format: biochemical
Protocol: Determination of Beta5 Activity:
Measurement of Beta5 inhibition is performed in 384 well format based on fluorescence intensity assay.
(§1) Purified human constitutive proteasome (1.25 nM) and serial diluted compounds in DMSO (range of concentrations from 30 μM to 15 pM) or controls are incubated for 20 minutes or 120 minutes (long incubation) at 25° C. in assay buffer containing 50 mM Tris pH 7.4, 0.03% SDS, 1 mM EDTA and 1% DMSO. The reaction is initiated by the addition of the fluorogenic peptide substrate, Suc-LLVY-AMC (Bachem 1-1395), at a concentration of 40 μM. After 60 minutes of incubation at 37° C., fluorescence intensity is measured at λex=350 nm and λem=450 nm with a fluorescence reader (Perkin Elmer Envision reader or equivalent).
(§2) Unless indicated otherwise the results are obtained after incubation for 20 minutes.

[2] = target: LMP7 (purified human immuno proteasome) (Homo sapiens, UniProt P28062); assay: Determination of LMP7 activity (fluorescence intensity assay, Suc-LLVY-AMC); format: biochemical; details: for Selectivity LMP7 vs Beta5: LMP7 versus Beta5, incubation for 20 minutes
Protocol: Biological Activity Determination of LMP7 Activity:
Measurement of LMP7 inhibition is performed in 384 well format based on fluorescence intensity assay.
as §1, with “immuno” for “constitutive”, “(0.25” for “(1.25”
as §2

[3] = incubation for 20 minutes at 25° C., concentrations 30 μM to 15 pM, read-out: Beta5 IC50
[4] = incubation for 20 minutes at 25° C., concentrations 30 μM to 15 pM, read-out: LMP7 IC50

Row | IC50 [1, 3] | Selectivity LMP7 vs Beta5 [2] | IC50 [2, 4] | IC50 ([1]; long incubation: 120 min at 25° C., read-out: Beta5 IC50 (M) (long)) | IC50 ([2]; long incubation: 120 min at 25° C., read-out: LMP7 IC50 (M) (long)) | Structure (SMILES)
1 | 5e-06 to 3e-05 M | ++ (100 ≤ Selectivity < 300) | 5e-08 to 5e-07 M | – | – | Cc1ccc(C[C@H](NC(=O)[C@@H]2C[C@H]3CC[C@@H]2O3)B(O)O)c(C)c1 [compound 25, [(1R)-2-(2,4-dimethylphenyl)-1-{[(1S,2R,4R)-7-oxabicyclo[2.2.1]heptan-2-yl]formamido}ethyl]boronic acid]
2 | 5e-07 to 5e-06 M | +++++ (Selectivity ≥700) | < 5e-08 M | – | – | O=C(N[C@@H](Cc1coc2c(Cl)cccc12)B(O)O)[C@@H]1C[C@H]2CC[C@@H]1O2 [Compound No. 13, [(1R)-2-(7-chloro-1-benzofuran-3-yl)-1-{[(1S,2R,4R)-7-oxabicyclo[2.2.1]heptan-2-yl]formamido}ethyl]boronic acid]
3 | 5e-06 to 3e-05 M | +++++ (Selectivity ≥700) | < 5e-08 M | – | – | O=C(N[C@@H](C[C@@H]1COc2ccccc21)B(O)O)[C@@]12CC[C@@H](O1)c1ccccc12 [compound 18, [(1R)-2-[(3S)-2,3-dihydro-1-benzofuran-3-yl]-1-{[(1S,8R)-11-oxatricyclo[6.2.1.0^2,7]undeca-2(7),3,5-trien-1-yl]formamido}ethyl]boronic acid]
4 | 5e-06 to 3e-05 M | +++++ (Selectivity ≥700) | < 5e-08 M | – | – | C[C@]12CC[C@](C(=O)N[C@@H](C[C@@H]3COc4ccccc43)B(O)O)(O1)c1ccccc12 [compound 21, [(1R)-2-[(3S)-2,3-dihydro-1-benzofuran-3-yl]-1-{[(1S,8R)-8-methyl-11-oxatricyclo[6.2.1.0^2,7]undeca-2,4,6-trien-1-yl]formamido}ethyl]boronic acid]
5 | > 3e-05 M | – | 5e-07 to 5e-06 M | – | – | Cc1cccc2c1OC[C@@H]2C[C@H](NC(=O)[C@@H]1C[C@H]2CC[C@@H]1O2)B(O)O [compound 14, [(1R)-2-[(3R)-7-methyl-2,3-dihydro-1-benzofuran-3-yl]-1-{[(1S,2R,4R)-7-oxabicyclo[2.2.1]heptan-2-yl]formamido}ethyl]boronic acid]
6 | > 3e-05 M | – | 5e-07 to 5e-06 M | – | – | O=C(N[C@@H](Cc1ccsc1)B(O)O)[C@@H]1C[C@H]2CC[C@@H]1O2 [compound 3, [(1R)-1-{[(1S,2R,4R)-7-oxabicyclo[2.2.1]heptan-2-yl]formamido}-2-(thiophen-3-yl)ethyl]boronic acid]
7 | 5e-06 to 3e-05 M | ++ (100 ≤ Selectivity < 300) | < 5e-08 M | – | – | O=C(N[C@@H](Cc1coc2ccccc12)B(O)O)C1C[C@H]2O[C@@H]1c1ccccc12 (stereo partly drawn) [compound 22, [(1R)-2-(1-benzofuran-3-yl)-1-{[(1R,8S)-11-oxatricyclo[6.2.1.0^2,7]undeca-2(7),3,5-trien-9-yl]formamido}ethyl]boronic acid]
8 | 5e-06 to 3e-05 M | +++++ (Selectivity ≥700) | < 5e-08 M | – | – | Cc1cccc2c1OC[C@H]2C[C@H](NC(=O)[C@@H]1C[C@H]2CC[C@@H]1O2)B(O)O [compound 15, [(1R)-2-[(3S)-7-methyl-2,3-dihydro-1-benzofuran-3-yl]-1-{[(1S,2R,4R)-7-oxabicyclo[2.2.1]heptan-2-yl]formamido}ethyl]boronic acid]
9 | > 3e-05 M | – | 5e-07 to 5e-06 M | – | – | O=C(N[C@@H](CCc1ccccc1)B(O)O)[C@@H]1C[C@H]2CC[C@@H]1O2 [compound 27, [(1R)-1-{[(1S,2R,4R)-7-oxabicyclo[2.2.1]heptan-2-yl]formamido}-3-phenylpropyl]boronic acid]
10 | 5e-06 to 3e-05 M | ++ (100 ≤ Selectivity < 300) | < 5e-08 M | – | – | O=C(N[C@@H](Cc1coc2ccccc12)B(O)O)[C@H]1C2C(=O)N(C3CC3)C[C@]23C=C[C@H]1O3 (stereo partly drawn) [compound 17, [(1R)-2-(1-benzofuran-3-yl)-1-{[(1S,6S,7R)-3-cyclopropyl-4-oxo-10-oxa-3-azatricyclo[5.2.1.0^1,5]dec-8-en-6-yl]formamido}ethyl]boronic acid]
11 | 5e-08 to 5e-07 M | + (Selectivity <100) | < 5e-08 M | – | – | O=C(N[C@@H](Cc1coc2ccccc12)B(O)O)C1C[C@@H]2O[C@H]1c1ccccc12 (stereo partly drawn) [compound 24, [(1R)-2-(1-benzofuran-3-yl)-1-{[(1S,8R)-11-oxatricyclo[6.2.1.0^2,7]undeca-2(7),3,5-trien-9-yl]formamido}ethyl]boronic acid]
12 | 5e-06 to 3e-05 M | +++++ (Selectivity ≥700) | < 5e-08 M | – | – | O=C(N[C@@H](Cc1coc2c(Cl)cccc12)B(O)O)[C@H]1C[C@@H]2CC[C@H]1O2 [compound 12, [(1R)-2-(7-chloro-1-benzofuran-3-yl)-1-{[(1R,2S,4S)-7-oxabicyclo[2.2.1]heptan-2-yl]formamido}ethyl]boronic acid]
13 | – | – | – | > 3e-05 M | 5e-07 to 5e-06 M | O=C(N[C@@H](CC1CCCCC1)B(O)O)[C@@H]1C[C@H]2CC[C@@H]1O2 [compound 26, [(1R)-2-cyclohexyl-1-{[(1S,2R,4R)-7-oxabicyclo[2.2.1]heptan-2-yl]formamido}ethyl]boronic acid]
14 | 5e-06 to 3e-05 M | +++++ (Selectivity ≥700) | < 5e-08 M | – | – | O=C(N[C@@H](C[C@@H]1COc2ccccc21)B(O)O)[C@]12CC[C@H](O1)c1ccccc12 [compound 16, [(1R)-2-[(3S)-2,3-dihydro-1-benzofuran-3-yl]-1-{[(1R,8S)-11-oxatricyclo[6.2.1.0^2,7]undeca-2(7),3,5-trien-1-yl]formamido}ethyl]boronic acid]
15 | 5e-06 to 3e-05 M | +++++ (Selectivity ≥700) | < 5e-08 M | – | – | C[C@@]12CC[C@@](C(=O)N[C@@H](C[C@@H]3COc4ccccc43)B(O)O)(O1)c1ccccc12 [compound 23, [(1R)-2-[(3S)-2,3-dihydro-1-benzofuran-3-yl]-1-{[(1R,8S)-8-methyl-11-oxatricyclo[6.2.1.0^2,7]undeca-2,4,6-trien-1-yl]formamido}ethyl]boronic acid]
16 | 5e-06 to 3e-05 M | +++++ (Selectivity ≥700) | < 5e-08 M | – | – | O=C(N[C@@H](C[C@@H]1COc2ccccc21)B(O)O)[C@@H]1C[C@H]2CC[C@@H]1O2 [Compound No. 1, [(1R)-2-[(3S)-2,3-dihydro-1-benzofuran-3-yl]-1-{[(1S,2R,4R)-7-oxabicyclo[2.2.1]heptan-2-yl]formamido}ethyl]boronic acid]
17 | 5e-06 to 3e-05 M | ++++ (500 ≤ Selectivity < 700) | < 5e-08 M | – | – | O=C(N[C@@H](Cc1coc2ccccc12)B(O)O)[C@H]1C[C@@H]2CC[C@H]1O2 [compound 8, [(1R)-2-(1-benzofuran-3-yl)-1-{[(1R,2S,4S)-7-oxabicyclo[2.2.1]heptan-2-yl]formamido}ethyl]boronic acid]
18 | > 3e-05 M | – | 5e-07 to 5e-06 M | – | – | CC(C)C[C@H](NC(=O)[C@@H]1C[C@H]2CC[C@@H]1O2)B(O)O [compound 28, [(1R)-3-methyl-1-{[(1S,2R,4R)-7-oxabicyclo[2.2.1]heptan-2-yl]formamido}butyl]boronic acid]
19 | 5e-06 to 3e-05 M | +++++ (Selectivity ≥700) | < 5e-08 M | – | – | Cc1cccc2c(C[C@H](NC(=O)[C@]34CC[C@H](O3)c3ccccc34)B(O)O)coc12 [compound 19, [(1R)-2-(7-methyl-1-benzofuran-3-yl)-1-{[(1R,8S)-11-oxatricyclo[6.2.1.0^2,7]undeca-2,4,6-trien-1-yl]formamido}ethyl]boronic acid]
20 | 5e-07 to 5e-06 M | +++++ (Selectivity ≥700) | < 5e-08 M | – | – | O=C(N[C@@H](Cc1coc2ccccc12)B(O)O)[C@@H]1C[C@H]2CC[C@@H]1O2 [Compound No. 9, [(1R)-2-(1-benzofuran-3-yl)-1-{[(1S,2R,4R)-7-oxabicyclo[2.2.1]heptan-2-yl]formamido}ethyl]boronic acid]
21 | 5e-06 to 3e-05 M | +++ (300 ≤ Selectivity < 500) | 5e-08 to 5e-07 M | – | – | O=C(N[C@@H](C[C@@H]1COc2ccccc21)B(O)O)[C@H]1C[C@@H]2CC[C@H]1O2 [compound 2, [(1R)-2-[(3S)-2,3-dihydro-1-benzofuran-3-yl]-1-{[(1R,2S,4S)-7-oxabicyclo[2.2.1]heptan-2-yl]formamido}ethyl]boronic acid]
22 | 5e-06 to 3e-05 M | ++++ (500 ≤ Selectivity < 700) | < 5e-08 M | – | – | Cc1cccc2c(C[C@H](NC(=O)[C@@]34CC[C@@H](O3)c3ccccc34)B(O)O)coc12 [compound 20, [(1R)-2-(7-methyl-1-benzofuran-3-yl)-1-{[(1S,8R)-11-oxatricyclo[6.2.1.0^2,7]undeca-2,4,6-trien-1-yl]formamido}ethyl]boronic acid]
